Measured values: patent US6855730B2, “3-methylidenyl-2-indolinone modulators of protein kinase” (Sugen, Inc., priority 1998, dated 2005)

Target: T1, PDGFR-β (Homo sapiens, UniProt P09619)
T1 construct: host or cells: NIH 3T3
Assay: Biochemical PDGFR assay (ELISA, PDGFR-β expressing NIH 3T3 cell lysate)
Conditions: read-out: bio PDGF IC50
In short: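 Phosphorylation was read by ELISA (anti-phosphotyrosine serum, peroxidase secondary, ABTS at 410 nm) after a 30 min room-temperature reaction with 20 μM ATP, EDTA-stopped. Kinase was lysate-derived PDGFR-β (NIH 3T3) immobilised via 28D4C10 antibody, compound added 30 min before ATP.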

T1 sequence (P09619 33-1106): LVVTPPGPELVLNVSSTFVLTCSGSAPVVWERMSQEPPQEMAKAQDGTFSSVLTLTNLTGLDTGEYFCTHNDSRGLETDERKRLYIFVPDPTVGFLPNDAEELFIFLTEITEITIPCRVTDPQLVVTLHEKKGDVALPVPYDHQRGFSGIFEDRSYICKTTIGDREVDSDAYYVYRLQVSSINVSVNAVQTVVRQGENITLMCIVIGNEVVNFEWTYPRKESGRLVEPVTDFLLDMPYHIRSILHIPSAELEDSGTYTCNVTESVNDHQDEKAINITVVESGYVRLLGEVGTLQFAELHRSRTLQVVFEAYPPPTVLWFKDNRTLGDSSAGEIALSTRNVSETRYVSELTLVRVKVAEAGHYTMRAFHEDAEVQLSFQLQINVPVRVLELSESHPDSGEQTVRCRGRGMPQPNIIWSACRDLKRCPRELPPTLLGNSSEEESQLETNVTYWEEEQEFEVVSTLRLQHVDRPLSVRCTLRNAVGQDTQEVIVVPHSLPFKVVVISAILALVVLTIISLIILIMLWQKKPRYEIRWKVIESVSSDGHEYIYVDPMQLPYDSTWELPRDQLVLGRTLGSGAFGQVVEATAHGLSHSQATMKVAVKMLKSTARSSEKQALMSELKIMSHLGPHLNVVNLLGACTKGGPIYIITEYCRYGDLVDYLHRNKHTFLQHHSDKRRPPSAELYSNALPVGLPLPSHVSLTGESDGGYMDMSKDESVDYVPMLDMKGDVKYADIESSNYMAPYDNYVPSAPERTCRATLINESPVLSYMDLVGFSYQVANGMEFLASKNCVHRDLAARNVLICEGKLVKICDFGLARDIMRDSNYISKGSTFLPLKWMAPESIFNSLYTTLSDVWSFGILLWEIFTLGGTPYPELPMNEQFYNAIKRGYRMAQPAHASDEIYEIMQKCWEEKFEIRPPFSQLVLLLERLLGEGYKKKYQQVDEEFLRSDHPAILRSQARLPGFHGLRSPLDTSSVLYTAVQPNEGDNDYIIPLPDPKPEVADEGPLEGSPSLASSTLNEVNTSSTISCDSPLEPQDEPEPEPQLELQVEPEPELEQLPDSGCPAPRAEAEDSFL

IC50 [µM] | SMILES
69.1 | CNS(=O)(=O)c1ccc2c(c1)/C(=C/c1cc3ccccc3[nH]1)C(=O)N2 [Example 173, 3-(1H-Indol-2-ylmethylene)-2-oxo-2,3-dihydro-1H-indole-5-sulfonic acid methylamide]
0.22 | Cc1c[nH]c(/C=C2\C(=O)Nc3ccc(Cl)cc32)c1CCC(=O)O [Example 216, 3-[2-(5-Chloro-2-oxo-1,2-dihydroindol-3-ylidenemethyl)-4-methyl-1H-pyrrol-3-yl]-propionic acid]
5.4 | Cc1[nH]c2ccccc2c1/C=C1\C(=O)Nc2ccc(C(=O)O)cc21 [Example 182, 3-(2-Methyl-1H-indol-3-ylmethylene)-2-oxo-2,3-dihydro-1H-indole-5-carboxylic acid]
> 100 | Nc1ccc2c(c1)/C(=C/c1ccc3[nH]ccc3c1)C(=O)N2 [Example 179, 5-Amino-3-(1H-indol-5-ylmethylene)-1,3-dihydro-indol-2-one]
0.05 | CCOC(=O)c1c(C)[nH]c(/C=C2\C(=O)Nc3ccc(Br)cc32)c1CCC(=O)O [Compound 114, 5-(5-Bromo-2-oxo-1,2-dihydroindol-3-ylidenemethyl)-4-(2-carboxyethyl)-2-methyl-1H-pyrrole-3-carboxylic acid ethyl ester]
> 100 | Cc1[nH]c2ccccc2c1/C=C1\C(=O)Nc2ccc(N)cc21 [Example 187, 5-Amino-3-(2-methyl-1H-indol-3-ylmethylene)-1,3-dihydroindol-2-one]
> 100 | O=C1Nc2ccc(C(=O)O)cc2/C1=C/c1ccc2[nH]ccc2c1 [Example 177, 3-(1H-Indol-5-ylmethylene)-2-oxo-2,3-dihydro-1H-indole-5-carboxylic acid]
0.781 | COc1cccc(-c2ccc3c(c2)NC(=O)/C3=C\c2[nH]cc(C)c2CCC(=O)O)c1 [Example 223, 3-{2-[6-(3-Methoxyphenyl)-2-oxo-1,2-dihydro-indol-3-ylidenemethyl]-4-methyl-1H-pyrrol-3-yl}-propionic acid]
2.38 | CCOc1cccc(-c2ccc3c(c2)NC(=O)/C3=C\c2[nH]cc(C)c2CCC(=O)O)c1 [Example 224, 3-{2-[6-(3-Ethoxyphenyl)-2-oxo-1,2-dihydro-indol-3-ylidenemethyl]-4-methyl-1H-pyrrol-3-yl}-propionic acid]
89.4 | NS(=O)(=O)c1ccc2c(c1)/C(=C/c1c[nH]c3ccccc13)C(=O)N2 [Example 172, 3-(1H-Indol-3-ylmethylene)-2-oxo-2,3-dihydro-1H-indole-5-sulfonic acid amide]
1.11 | Cc1c(/C=C2\C(=O)Nc3ccc(N)cc32)[nH]c2ccccc12 [Example 180, 5-Amino-3-(3-methyl-1H-indol-2-ylmethylene)-1,3-dihydroindol-2-one]
2.5 | O=C1Nc2ccc(C(=O)O)cc2/C1=C/c1c[nH]c2ccccc12 [Example 174, 3-(1H-Indol-3-ylmethylene)-2-oxo-2,3-dihydro-1H-indole-5-carboxylic acid]
81.4 | Cc1ccc2c(c1)/C(=C/c1[nH]c3c(c1CCC(=O)O)CCCC3)C(=O)N2 [Example 194, 3-[2-(5-Methyl-2-oxo-1,2-dihydroindol-3-ylidenemethyl)-4,5,6,7-tetrahydro-1H-indol-3-yl]-propionic acid]
0.05 | O=C(O)CCc1c(/C=C2\C(=O)Nc3ccc(Cl)cc32)[nH]c2c1CCCC2 [Example 191, 3-[2-(5-Chloro-2-oxo-1,2-dihydroindol-3-ylidenemethyl)-4,5,6,7-tetrahydro-1H-indol-3-yl]-propionic acid]
0.02 | Cc1cc(CCC(=O)O)c(/C=C2\C(=O)Nc3ccc(Br)cc32)[nH]1 [Compound 116, 3-[2-(5-Bromo-2-oxo-1,2-dihydroindol-3-ylidenemethyl)-5-methyl-1H-pyrrol-3-yl]-propionic acid]
> 100 | COc1c(C(C)C)cc(/C=C2/C(=O)Nc3ccccc32)cc1C(C)C [Example 1, 3-(3,5-Diisopropyl-4-methoxybenzylidene)-1,3-dihydroindol-2-one]

The remaining lines, values behind:

SMILES | IC50 [µM]
CNC(=O)CCc1c(/C=C2\C(=O)Nc3ccccc32)[nH]c2c1CCCC2 [Example 201, N-Methyl-3-[2-(2-oxo-1,2-dihydroindol-3-ylidenemethyl)-4,5,6,7-tetrahydro-1H-indol-3-yl]-propionamide] | 1.73
O=C(CCc1c(/C=C2\C(=O)Nc3ccccc32)[nH]c2c1CCCC2)NCCN1CCOCC1 [Example 202, N-(2-Morpholin-4-ylethyl)-3-[2-(2-oxo-1,2-dihydroindol-3-ylidenemethyl)-4,5,6,7-tetrahydro-1H-indol-3-yl]-propionamide] | 9.58
CN(C)C(=O)CCc1c(/C=C2\C(=O)Nc3ccccc32)[nH]c2c1CCCC2 [Example 197, N,N-Dimethyl-3-[2-(2-oxo-1,2-dihydroindol-3-ylidenemethyl)-4,5,6,7-tetrahydro-1H-indol-3-yl]-propionamide] | > 100
O=C(O)CCc1c(/C=C2\C(=O)Nc3cc(Cl)ccc32)[nH]c2c1CCCC2 [Example 195, 3-[2-(6-Chloro-2-oxo-1,2-dihydroindol-3-ylidenemethyl)-4,5,6,7-tetrahydro-1H-indol-3-yl]-propionic acid] | 2.04
NC(=O)CCc1c(/C=C2\C(=O)Nc3ccccc32)[nH]c2c1CCCC2 [Example 199, 3-[2-(2-Oxo-1,2-dihydroindol-3-ylidenemethyl)-4,5,6,7-tetrahydro-1H-indol-3-yl]-propionamide] | 0.89
Cc1c[nH]c(/C=C2\C(=O)Nc3ccccc32)c1CCC(=O)O [Example 215, 3-[4-Methyl-2-(2-oxo-1,2-dihydroindol-3-ylidenemethyl)-1H-pyrrol-3-yl]-propionic acid] | 0.5
COc1ccc2c(c1)NC(=O)/C2=C\c1[nH]c2c(c1CCC(=O)O)CCCC2 [Example 196, 3-[2-(6-Methoxy-2-oxo-1,2-dihydroindol-3-ylidenemethyl)-4,5,6,7-tetrahydro-1H-indol-3-yl]-propionic acid] | 33.7
O=C(O)CCc1c(/C=C2\C(=O)Nc3cc(-c4ccccc4)ccc32)[nH]c2c1CCCC2 [Example 206, 3-[2-(2-oxo-6-phenyl-1,2-dihydroindol-3-ylidenemethyl)-4,5,6,7-tetrahydro-1H-indol-3-yl]-propionic acid] | 0.04
Cc1c[nH]c(/C=C2\C(=O)Nc3cccc(C)c32)c1CCC(=O)O [Example 218, 3-[2-(4-Methyl-2-oxo-1,2-dihydroindol-3-ylidenemethyl)-4-methyl-1H-pyrrol-3-yl]-propionic acid] | 2.11
O=C1Nc2ccccc2/C1=C/c1[nH]c2c(c1CCC(=O)N1CCOCC1)CCCC2 [Example 200, 3-[3-(3-Morpholin-4-yl-3-oxopropyl)-4,5,6,7-tetrahydro-1H-indol-2-ylmethylene]-1,3-dihydroindol-2-one] | 11.8
COc1ccc(-c2ccc3c(c2)NC(=O)/C3=C\c2[nH]c3c(c2CCC(=O)O)CCCC3)cc1 [Example 205, 3-{2-[6-(4-Methoxyphenyl)-2-oxo-1,2-dihydro-indol-3-ylidenemethyl]-4,5,6,7-tetrahydro-1H-indol-3-yl}-propionic acid] | 5.43
O=C(O)CCc1c(/C=C2\C(=O)Nc3ncccc32)[nH]c2c1CCCC2 [Example 203, 3-[2-(2-Oxo-1,2-dihydropyrrolo[2,3-b]pyridin-3-ylidenemethyl)-4,5,6,7-tetrahydro-1H-indol-3-yl]-propionic acid] | 0.15
